≈ marks a conversion by molar mass, not a printed value.
What was measured:
Assay type in all cases: functional
Escherichia coli [1] = experiment: Antimicrobial activity against Escherichia coli ATCC 25922 assessed as >99.9 % reduction in CFU after 18 hrs by broth microdilution method; conditions: ATCC 25922, 18 h
Staphylococcus aureus [2] = experiment: Antimicrobial activity against Staphylococcus aureus ATCC 6538 assessed as >99.9 % reduction in CFU after 18 hrs by broth microdilution method; conditions: ATCC 6538, 18 h
[3] = test system: Staphylococcus epidermidis; experiment: Antimicrobial activity against Staphylococcus epidermidis ATCC 12228 assessed as >99.9 % reduction in CFU after 18 hrs by broth microdilution method; conditions: ATCC 12228, 18 h
Micrococcus luteus [4] = experiment: Antimicrobial activity against Micrococcus luteus ATCC 10240 assessed as >99.9 % reduction in CFU after 18 hrs by broth microdilution method; conditions: ATCC 10240, 18 h
Klebsiella pneumoniae [5] = experiment: Antimicrobial activity against Klebsiella pneumoniae ATCC 13883 after 18 hrs by broth microdilution method; conditions: ATCC 13883, 18 h
Escherichia coli [6] = experiment: Antimicrobial activity against Escherichia coli ATCC 25922 after 18 hrs by broth microdilution method; conditions: ATCC 25922, 18 h
Bacillus cereus [7] = experiment: Antimicrobial activity against Bacillus cereus ATCC 10876 after 18 hrs by broth microdilution method; conditions: ATCC 10876, 18 h
Bacillus cereus [8] = experiment: Antimicrobial activity against Bacillus cereus ATCC 10876 assessed as >99.9 % reduction in CFU after 18 hrs by broth microdilution method; conditions: ATCC 10876, 18 h
Micrococcus luteus [9] = experiment: Antimicrobial activity against Micrococcus luteus ATCC 10240 after 18 hrs by broth microdilution method; conditions: ATCC 10240, 18 h
[10] = test system: Staphylococcus epidermidis; experiment: Antimicrobial activity against Staphylococcus epidermidis ATCC 12228 after 18 hrs by broth microdilution method; conditions: ATCC 12228, 18 h
Staphylococcus aureus [11] = experiment: Antimicrobial activity against Staphylococcus aureus ATCC 25923 after 18 hrs by broth microdilution method; conditions: ATCC 25923, 18 h
Staphylococcus aureus [12] = experiment: Antimicrobial activity against Staphylococcus aureus ATCC 6538 after 18 hrs by broth microdilution method; conditions: ATCC 6538, 18 h
Proteus mirabilis [13] = experiment: Antimicrobial activity against Proteus mirabilis ATCC 12453 after 18 hrs by broth microdilution method; conditions: ATCC 12453, 18 h
Klebsiella pneumoniae [14] = experiment: Antimicrobial activity against Klebsiella pneumoniae ATCC 13883 assessed as >99.9 % reduction in CFU after 18 hrs by broth microdilution method; conditions: ATCC 13883, 18 h
Bacillus subtilis [15] = experiment: Antimicrobial activity against Bacillus subtilis ATCC […] assessed as >99.9 % reduction in CFU after 18 hrs by broth microdilution method
Bacillus subtilis [16] = experiment: Antimicrobial activity against Bacillus subtilis ATCC […] after 18 hrs by broth microdilution method
Proteus mirabilis [17] = experiment: Antimicrobial activity against Proteus mirabilis ATCC 12453 assessed as >99.9 % reduction in CFU after 18 hrs by broth microdilution method; conditions: ATCC 12453, 18 h
Staphylococcus aureus [18] = experiment: Antimicrobial activity against Staphylococcus aureus ATCC 25923 assessed as >99.9 % reduction in CFU after 18 hrs by broth microdilution method; conditions: ATCC 25923, 18 h

Structure (SMILES) | MIC (Klebsiella pneumoniae [5]) [µg/mL] | MIC (Escherichia coli [6]) [µg/mL] | MIC (Bacillus cereus [7]) [µg/mL] | MIC (Micrococcus luteus [9]) [µg/mL] | MIC [10] [µg/mL] | MIC (Staphylococcus aureus [11]) [µg/mL] | MIC (Staphylococcus aureus [12]) [µg/mL] | MIC (Proteus mirabilis [13]; read-out: MIC) [µg/mL] | MIC (Bacillus subtilis [16]) [µg/mL] | MBC (Escherichia coli [1]) [µg/mL] | MBC (Staphylococcus aureus [2]) [µg/mL] | MBC [3] [µg/mL] | MBC (Micrococcus luteus [4]) [µg/mL] | MBC (Bacillus cereus [8]) [µg/mL] | MBC (Klebsiella pneumoniae [14]; read-out: MBC) [µg/mL] | MBC (Bacillus subtilis [15]) [µg/mL] | MBC (Proteus mirabilis [17]; read-out: MBC) [µg/mL] | MBC (Staphylococcus aureus [18]) [µg/mL] | also measured
CC1(C)S[C@@H]2[C@H](NC(=O)[C@H](N)c3ccccc3)C(=O)N2[C@H]1C(=O)O [AMPICILLIN] |  |  | 62.5 (≈ 179 µM) | 6 (≈ 17.2 µM) | 6 (≈ 17.2 µM) | 2 (≈ 5.72 µM) | 3 (≈ 8.59 µM) |  | 3 (≈ 8.59 µM) |  |  |  |  |  |  |  |  |  | 
O=C(NNC(=S)Nc1c(F)cccc1F)c1cccc(Cl)c1 |  |  | 250 (≈ 731 µM) | 250 (≈ 731 µM) | 250 (≈ 731 µM) | 125 (≈ 366 µM) | 250 (≈ 731 µM) |  | 250 (≈ 731 µM) |  |  |  |  |  |  |  |  |  | 
O=C(NNC(=S)Nc1ccccc1)c1cccc(Cl)c1 |  |  | 125 (≈ 409 µM) | 125 (≈ 409 µM) | 125 (≈ 409 µM) | 125 (≈ 409 µM) | 125 (≈ 409 µM) |  | 125 (≈ 409 µM) |  |  |  |  |  |  |  |  |  | 
Fc1cccc(F)c1-n1c(-c2cccc(Cl)c2)nn(CN2CCCC2)c1=S |  | 500 (≈ 1230 µM) | 125 (≈ 307 µM) |  | 125 (≈ 307 µM) | 125 (≈ 307 µM) | 125 (≈ 307 µM) |  | 125 (≈ 307 µM) | 1000 (≈ 2460 µM) | 500 (≈ 1230 µM) | 1000 (≈ 2460 µM) | 1000 (≈ 2460 µM) | 1000 (≈ 2460 µM) |  | 500 (≈ 1230 µM) |  | 500 (≈ 1230 µM) | MBC (Klebsiella pneumoniae [5]): 1000 µg/mL (≈ 2460 µM); MBC (Micrococcus luteus [9]): 1000 µg/mL (≈ 2460 µM); MIC (Proteus mirabilis [13]): 1000 µg/mL (≈ 2460 µM); MBC (Klebsiella pneumoniae [14]): 1000 µg/mL (≈ 2460 µM); MBC (Proteus mirabilis [17]): 1000 µg/mL (≈ 2460 µM)
O=C(NNC(=S)Nc1ccc(Cl)cc1)c1cccc(Cl)c1 |  |  | 62.5 (≈ 184 µM) | 31.2 (≈ 91.8 µM) | 31.2 (≈ 91.8 µM) | 31.2 (≈ 91.8 µM) | 31.2 (≈ 91.8 µM) |  | 31.2 (≈ 91.8 µM) |  |  |  |  |  |  |  |  |  | 
COc1ccc(NC(=S)NNC(=O)c2cccc(Cl)c2)cc1 |  |  | 125 (≈ 372 µM) | 62.5 (≈ 186 µM) | 125 (≈ 372 µM) | 62.5 (≈ 186 µM) | 125 (≈ 372 µM) |  | 125 (≈ 372 µM) |  |  |  |  |  |  |  |  |  | 
O=C(NNC(=S)Nc1ccc(I)cc1)c1cccc(Cl)c1 |  |  | 15.6 (≈ 36.2 µM) | 31.2 (≈ 72.4 µM) | 31.2 (≈ 72.4 µM) | 31.2 (≈ 72.4 µM) | 31.2 (≈ 72.4 µM) |  | 31.2 (≈ 72.4 µM) |  |  |  |  |  |  |  |  |  | 

Further lines, with some results ahead:

MIC (Klebsiella pneumoniae [5]) [µg/mL] | MIC (Escherichia coli [6]) [µg/mL] | MIC (Bacillus cereus [7]) [µg/mL] | MIC (Micrococcus luteus [9]) [µg/mL] | MIC [10] [µg/mL] | MIC (Staphylococcus aureus [11]) [µg/mL] | MIC (Staphylococcus aureus [12]) [µg/mL] | MIC (Proteus mirabilis [13]; read-out: MIC) [µg/mL] | MIC (Bacillus subtilis [16]) [µg/mL] | Structure (SMILES) | MBC (Escherichia coli [1]) [µg/mL] | MBC (Staphylococcus aureus [2]) [µg/mL] | MBC [3] [µg/mL] | MBC (Micrococcus luteus [4]) [µg/mL] | MBC (Bacillus cereus [8]) [µg/mL] | MBC (Klebsiella pneumoniae [14]; read-out: MBC) [µg/mL] | MBC (Bacillus subtilis [15]) [µg/mL] | MBC (Proteus mirabilis [17]; read-out: MBC) [µg/mL] | MBC (Staphylococcus aureus [18]) [µg/mL] | also measured
> 1000 | > 1000 | 62.5 (≈ 139 µM) | 62.5 (≈ 139 µM) | 250 (≈ 556 µM) | 31.2 (≈ 69.5 µM) | 62.5 (≈ 139 µM) | > 1000 | 62.5 (≈ 139 µM) | S=c1n(CN2CCCC2)nc(-c2cccc(Cl)c2)n1-c1ccc(Br)cc1 | > 1000 | > 1000 | > 1000 | > 1000 | > 1000 | > 1000 | 500 (≈ 1110 µM) | > 1000 | > 1000 | 
250 (≈ 624 µM) | 250 (≈ 624 µM) | 125 (≈ 312 µM) | 125 (≈ 312 µM) | 250 (≈ 624 µM) | 125 (≈ 312 µM) | 250 (≈ 624 µM) | 500 (≈ 1250 µM) | 250 (≈ 624 µM) | COc1ccc(-n2c(-c3cccc(Cl)c3)nn(CN3CCCC3)c2=S)cc1 | 500 (≈ 1250 µM) | 500 (≈ 1250 µM) | 1000 (≈ 2490 µM) | 1000 (≈ 2490 µM) | > 1000 | 500 (≈ 1250 µM) | 500 (≈ 1250 µM) | > 1000 | 500 (≈ 1250 µM) | 
 |  | > 1000 | > 1000 | > 1000 | > 1000 | > 1000 |  | > 1000 | COc1ccc(-n2c(-c3cccc(Cl)c3)n[nH]c2=S)cc1 |  |  |  |  |  |  |  |  |  | 
500 (≈ 1290 µM) | 500 (≈ 1290 µM) | 250 (≈ 643 µM) | 125 (≈ 321 µM) | 125 (≈ 321 µM) | 125 (≈ 321 µM) | 125 (≈ 321 µM) | 500 (≈ 1290 µM) | 125 (≈ 321 µM) | Fc1ccc(-n2c(-c3cccc(Cl)c3)nn(CN3CCCC3)c2=S)cc1 | 500 (≈ 1290 µM) | 250 (≈ 643 µM) | 500 (≈ 1290 µM) | 500 (≈ 1290 µM) | > 1000 | 500 (≈ 1290 µM) | 250 (≈ 643 µM) | 1000 (≈ 2570 µM) | 250 (≈ 643 µM) | 
 |  | 250 (≈ 772 µM) | 125 (≈ 386 µM) | 250 (≈ 772 µM) | 250 (≈ 772 µM) | 250 (≈ 772 µM) |  | 500 (≈ 1540 µM) | Fc1cccc(F)c1-n1c(-c2cccc(Cl)c2)n[nH]c1=S |  |  |  |  |  |  |  |  |  | 
 |  | 15.6 (≈ 42.6 µM) | 31.2 (≈ 85.2 µM) | 31.2 (≈ 85.2 µM) | 31.2 (≈ 85.2 µM) | 31.2 (≈ 85.2 µM) |  | 15.6 (≈ 42.6 µM) | S=c1[nH]nc(-c2cccc(Cl)c2)n1-c1ccc(Br)cc1 |  |  |  |  |  |  |  |  |  | 
> 1000 | > 1000 | 500 (≈ 1010 µM) | 500 (≈ 1010 µM) | 500 (≈ 1010 µM) | 500 (≈ 1010 µM) | 500 (≈ 1010 µM) | > 1000 | 250 (≈ 503 µM) | S=c1n(CN2CCCC2)nc(-c2cccc(Cl)c2)n1-c1ccccc1I | > 1000 | > 1000 | > 1000 | > 1000 | > 1000 | > 1000 | > 1000 | > 1000 | > 1000 | 
> 1000 | > 1000 | 125 (≈ 325 µM) | 62.5 (≈ 162 µM) | 125 (≈ 325 µM) | 31.2 (≈ 81.2 µM) | 62.5 (≈ 162 µM) | > 1000 | 31.2 (≈ 81.2 µM) | Cc1ccc(-n2c(-c3cccc(Cl)c3)nn(CN3CCCC3)c2=S)cc1 | > 1000 | > 1000 | > 1000 | > 1000 | > 1000 | > 1000 | 1000 (≈ 2600 µM) | > 1000 | > 1000 | 

— ChEMBL document CHEMBL1649393, “Synthesis and antimicrobial activity of thiosemicarbazides, s-triazoles and their Mannich bases bearing 3-chlorophenyl moiety” (2011)
